Laboratory results reported in ChEMBL document CHEMBL1201862, “PubChem BioAssay data set” (2004).
Active and inactive are the calls of the source.

Tests used:
[1] = target: Mu-type opioid receptor (Homo sapiens, UniProt P35372); assay type: functional, cell-based;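 note: U2OS cells with beta-arrestin recruitment to OPRM1 by beta-gal complementation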
[2] = target: 5-hydroxytryptamine receptor 2A (Mus musculus, UniProt P35363); assay type: functional, cell-based;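 note: CHO-K1 cells with tagged receptor and beta-arrestin; agonist potency measured as compound-induced activation of the receptor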
[3] = cells; assay type: functional, cell-based
[4] = target: Nuclear receptor subfamily 0 group B member 1 (Homo sapiens, UniProt P51843); assay type: functional, cell-based;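 note: HEK293T cells transfected with SF-1 and DAX-1 plus StAR promoter luciferase reporter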
Chain of Nuclear receptor subfamily 0 group B member 1 (P51843 whole entry): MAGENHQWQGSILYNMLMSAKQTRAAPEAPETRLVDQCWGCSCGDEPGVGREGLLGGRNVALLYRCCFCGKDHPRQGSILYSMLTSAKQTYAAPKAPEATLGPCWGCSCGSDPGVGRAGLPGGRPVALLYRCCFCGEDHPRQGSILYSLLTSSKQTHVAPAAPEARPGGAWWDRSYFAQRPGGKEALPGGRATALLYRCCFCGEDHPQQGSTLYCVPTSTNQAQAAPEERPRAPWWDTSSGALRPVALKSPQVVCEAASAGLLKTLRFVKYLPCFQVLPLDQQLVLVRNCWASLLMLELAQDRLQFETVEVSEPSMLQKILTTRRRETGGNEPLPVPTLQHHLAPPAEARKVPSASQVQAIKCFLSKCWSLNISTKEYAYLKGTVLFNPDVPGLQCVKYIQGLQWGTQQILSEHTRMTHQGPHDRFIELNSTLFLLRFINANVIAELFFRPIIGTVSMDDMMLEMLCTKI

[5] = target: FAD-linked sulfhydryl oxidase ALR (Homo sapiens, UniProt P55789); assay: ALR-catalysed DTT oxidation blockers – biochemical, H2O2 detection, luminescence, cherry-pick, dose response (AID 493248)
Chain of FAD-linked sulfhydryl oxidase ALR (P55789 whole entry): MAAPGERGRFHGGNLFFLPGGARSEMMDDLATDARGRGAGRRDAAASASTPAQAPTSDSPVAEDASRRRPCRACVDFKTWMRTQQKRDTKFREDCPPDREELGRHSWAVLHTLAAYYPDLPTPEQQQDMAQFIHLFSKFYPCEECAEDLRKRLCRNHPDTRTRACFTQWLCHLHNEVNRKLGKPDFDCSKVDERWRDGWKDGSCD

[6] = target: fMet-Leu-Phe receptor (Homo sapiens, UniProt P21462); assay: formyl peptide receptor binders – dose response (AID 519); assay type: functional
Chain of fMet-Leu-Phe receptor (P21462 whole entry): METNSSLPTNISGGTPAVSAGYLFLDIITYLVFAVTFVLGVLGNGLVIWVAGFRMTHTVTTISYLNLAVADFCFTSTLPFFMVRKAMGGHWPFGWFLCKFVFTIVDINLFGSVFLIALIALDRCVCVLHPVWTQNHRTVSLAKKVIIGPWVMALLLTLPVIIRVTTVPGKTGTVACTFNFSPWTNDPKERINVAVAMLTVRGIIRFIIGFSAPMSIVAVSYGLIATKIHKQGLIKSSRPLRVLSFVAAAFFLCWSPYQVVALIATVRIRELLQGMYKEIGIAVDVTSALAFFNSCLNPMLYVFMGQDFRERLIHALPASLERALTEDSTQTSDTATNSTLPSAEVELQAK

[7] = target: T1, Aminopeptidase N (Plasmodium falciparum FcB1/Columbia, UniProt O96935); assay: malaria alanyl aminopeptidase activity blockers – biochemical, fluorogenic H-Leu-NHMec substrate, 1536-well (AID 1445); set-up: species or system Plasmodium falciparum 3D7, 3D7
T1 sequence (O96935 whole entry): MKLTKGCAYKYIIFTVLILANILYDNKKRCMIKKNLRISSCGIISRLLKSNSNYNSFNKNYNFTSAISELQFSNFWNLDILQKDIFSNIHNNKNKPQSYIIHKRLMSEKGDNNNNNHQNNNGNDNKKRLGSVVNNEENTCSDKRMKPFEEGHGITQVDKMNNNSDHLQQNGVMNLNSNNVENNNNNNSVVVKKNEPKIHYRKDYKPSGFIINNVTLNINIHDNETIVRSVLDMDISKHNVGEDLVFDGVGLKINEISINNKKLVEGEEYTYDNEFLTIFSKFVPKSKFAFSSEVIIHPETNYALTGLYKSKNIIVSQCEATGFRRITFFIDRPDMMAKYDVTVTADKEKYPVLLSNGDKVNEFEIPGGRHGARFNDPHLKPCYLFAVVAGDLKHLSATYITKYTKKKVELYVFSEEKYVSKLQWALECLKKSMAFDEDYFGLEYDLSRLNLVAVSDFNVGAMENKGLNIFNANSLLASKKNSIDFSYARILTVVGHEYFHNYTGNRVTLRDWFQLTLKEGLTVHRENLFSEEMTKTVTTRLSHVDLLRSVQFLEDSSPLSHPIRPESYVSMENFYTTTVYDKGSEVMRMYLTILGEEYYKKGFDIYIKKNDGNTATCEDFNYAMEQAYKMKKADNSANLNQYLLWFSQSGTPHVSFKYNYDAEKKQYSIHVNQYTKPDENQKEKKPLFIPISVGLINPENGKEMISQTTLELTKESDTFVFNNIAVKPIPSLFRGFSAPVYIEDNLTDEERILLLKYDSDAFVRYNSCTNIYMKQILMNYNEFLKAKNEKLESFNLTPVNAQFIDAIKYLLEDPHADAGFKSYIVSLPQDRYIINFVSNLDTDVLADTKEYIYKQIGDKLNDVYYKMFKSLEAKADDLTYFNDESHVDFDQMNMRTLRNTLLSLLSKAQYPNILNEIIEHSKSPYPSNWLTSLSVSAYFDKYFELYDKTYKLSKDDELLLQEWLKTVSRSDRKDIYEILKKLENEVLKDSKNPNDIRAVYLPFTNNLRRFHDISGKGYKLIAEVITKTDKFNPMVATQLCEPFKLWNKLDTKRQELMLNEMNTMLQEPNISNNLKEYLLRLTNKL

[8] = target: Long-chain-fatty-acid--AMP ligase FadD28 (Mycobacterium tuberculosis, UniProt P9WQ59); assay: Fluorescence polarization aasay to screen for inhibitors that compete for the binding of FadD28 to a bisubstrate Measured in Biochemical System Using Plate Reader - 2147-01_Inhibitor_Dose_CherryPick_Activity.; assay type: functional, Mycobacterium tuberculosis H37Rv
Chain of Long-chain-fatty-acid--AMP ligase FadD28 (P9WQ59 whole entry): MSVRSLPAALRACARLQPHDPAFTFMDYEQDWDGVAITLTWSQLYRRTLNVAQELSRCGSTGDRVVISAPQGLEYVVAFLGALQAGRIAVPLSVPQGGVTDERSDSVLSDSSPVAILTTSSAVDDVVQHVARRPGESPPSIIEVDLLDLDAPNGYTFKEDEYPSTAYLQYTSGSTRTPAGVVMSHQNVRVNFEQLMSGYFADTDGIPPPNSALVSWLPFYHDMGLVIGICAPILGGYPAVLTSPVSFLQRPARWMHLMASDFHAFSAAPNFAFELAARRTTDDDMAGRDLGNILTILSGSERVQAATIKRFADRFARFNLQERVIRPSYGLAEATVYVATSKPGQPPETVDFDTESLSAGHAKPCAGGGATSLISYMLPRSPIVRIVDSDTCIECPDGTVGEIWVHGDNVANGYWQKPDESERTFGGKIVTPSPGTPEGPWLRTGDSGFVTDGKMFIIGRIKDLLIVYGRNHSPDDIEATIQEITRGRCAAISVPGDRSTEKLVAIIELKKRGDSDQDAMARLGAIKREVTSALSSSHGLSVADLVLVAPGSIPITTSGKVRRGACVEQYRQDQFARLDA

[9] = target: Endoplasmic reticulum aminopeptidase 1 (Homo sapiens, UniProt Q9NZ08); assay: inhibition of human ERAP1 enzyme activity – biochemical, cherry-pick, set 2, plate reader, dose response (AID 743314)
Chain of Endoplasmic reticulum aminopeptidase 1 (Q9NZ08 whole entry): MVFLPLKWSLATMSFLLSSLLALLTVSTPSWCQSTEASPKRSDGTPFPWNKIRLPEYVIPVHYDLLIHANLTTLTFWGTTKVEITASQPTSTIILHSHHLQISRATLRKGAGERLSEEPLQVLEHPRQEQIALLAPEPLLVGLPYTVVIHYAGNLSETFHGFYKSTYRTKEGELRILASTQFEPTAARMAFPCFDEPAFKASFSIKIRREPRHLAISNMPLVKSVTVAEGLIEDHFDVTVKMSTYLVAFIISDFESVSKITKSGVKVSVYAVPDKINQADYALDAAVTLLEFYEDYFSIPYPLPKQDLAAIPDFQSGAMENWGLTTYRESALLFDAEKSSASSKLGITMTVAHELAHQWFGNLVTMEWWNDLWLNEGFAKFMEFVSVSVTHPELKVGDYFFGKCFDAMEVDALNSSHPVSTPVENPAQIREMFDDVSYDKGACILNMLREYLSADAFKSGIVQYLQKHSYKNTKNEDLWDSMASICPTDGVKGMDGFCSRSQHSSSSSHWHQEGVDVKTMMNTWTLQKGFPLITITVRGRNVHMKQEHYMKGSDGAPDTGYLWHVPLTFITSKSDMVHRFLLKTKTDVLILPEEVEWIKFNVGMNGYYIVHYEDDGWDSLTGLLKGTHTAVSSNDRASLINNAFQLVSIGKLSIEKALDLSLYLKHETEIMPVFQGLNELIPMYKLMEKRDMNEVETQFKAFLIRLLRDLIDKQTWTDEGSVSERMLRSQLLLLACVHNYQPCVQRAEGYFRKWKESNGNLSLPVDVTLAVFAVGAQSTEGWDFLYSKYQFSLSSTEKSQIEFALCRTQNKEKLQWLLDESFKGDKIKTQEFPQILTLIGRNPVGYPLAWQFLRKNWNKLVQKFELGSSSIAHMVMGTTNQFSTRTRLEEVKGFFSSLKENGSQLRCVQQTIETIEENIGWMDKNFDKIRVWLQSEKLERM

[10] = target: T2, Beta-2 adrenergic receptor (Homo sapiens, UniProt P07550); assay: ADRB2 activation measured by internalization – cell-based, FAP fluorogen, flow cytometry, cherry pick 1, dose response (AID 588763); assay type: functional
T2 sequence (P07550 whole entry): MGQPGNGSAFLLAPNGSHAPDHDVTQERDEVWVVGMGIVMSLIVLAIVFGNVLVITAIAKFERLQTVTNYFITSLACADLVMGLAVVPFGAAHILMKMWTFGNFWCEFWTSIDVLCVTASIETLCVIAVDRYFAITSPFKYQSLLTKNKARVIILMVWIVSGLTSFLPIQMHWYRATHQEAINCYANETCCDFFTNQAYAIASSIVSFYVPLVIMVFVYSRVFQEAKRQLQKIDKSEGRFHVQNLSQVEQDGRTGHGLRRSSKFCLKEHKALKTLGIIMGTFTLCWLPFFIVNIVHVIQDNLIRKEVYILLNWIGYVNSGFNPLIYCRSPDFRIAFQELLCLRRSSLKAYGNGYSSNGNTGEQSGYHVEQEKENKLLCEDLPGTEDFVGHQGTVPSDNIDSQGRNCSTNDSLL

[11] = target: T2, Beta-2 adrenergic receptor; assay: Dose response for HTS for Beta-2AR agonists via FAP method from Powderset3.; assay type: functional
[12] = target: Fructose-bisphosphate aldolase (Mycobacterium tuberculosis, UniProt P9WQA3); assay: Fluorescence-based biochemical high throughput dose response assay for inhibitors of the fructose-bisphosphate aldolase (FBA) of M. tuberculosis.; assay type: functional
[13] = target: Major prion protein (Homo sapiens, UniProt P04156); assay type: functional, cell-based
[14] = cells
[15] = target: Botulinum neurotoxin type F (Clostridium botulinum, UniProt P30996); assay: High-throughput multiplex microsphere dose response for inhibitors of toxin protease, specifically Botulinum neurotoxin light chain F protease, compounds from Cherry Pick 02.; assay type: functional; details: read-out: EC50_MICROM
[16] = target: T3, Protein skinhead-1 (Caenorhabditis elegans, UniProt P34707); assay type: functional
T3 sequence (P34707 whole entry): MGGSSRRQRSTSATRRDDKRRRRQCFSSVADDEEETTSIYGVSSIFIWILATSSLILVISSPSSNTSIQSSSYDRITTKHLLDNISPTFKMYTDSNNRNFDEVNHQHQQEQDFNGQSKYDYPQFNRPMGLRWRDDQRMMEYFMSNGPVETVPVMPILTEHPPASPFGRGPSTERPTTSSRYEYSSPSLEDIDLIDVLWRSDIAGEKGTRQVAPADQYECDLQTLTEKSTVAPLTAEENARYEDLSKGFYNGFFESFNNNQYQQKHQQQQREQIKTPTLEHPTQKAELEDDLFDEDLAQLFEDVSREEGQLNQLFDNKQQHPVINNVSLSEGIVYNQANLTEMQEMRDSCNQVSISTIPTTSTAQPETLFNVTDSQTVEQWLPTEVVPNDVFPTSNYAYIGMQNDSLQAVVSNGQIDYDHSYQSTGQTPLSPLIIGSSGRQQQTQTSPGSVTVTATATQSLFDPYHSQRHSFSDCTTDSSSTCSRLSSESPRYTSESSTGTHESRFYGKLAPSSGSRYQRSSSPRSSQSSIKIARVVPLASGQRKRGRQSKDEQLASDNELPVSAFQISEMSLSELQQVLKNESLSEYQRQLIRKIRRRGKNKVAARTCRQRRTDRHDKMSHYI

[17] = tested on: Vero; assay: viability loss in Vero cells – cell-based, plate reader, cherry-pick samples, cytotoxicity control, dose response (AID 687020); assay type: functional; details: Chlorocebus sabaeus
[18] = target: Kallikrein-7 (Homo sapiens, UniProt P49862); assay: Fluorescence Intensity-based biochemical primary high throughput dose response assay to identify activators of kallikrein-7 (K7) zymogen.
Chain of Kallikrein-7 (P49862 whole entry): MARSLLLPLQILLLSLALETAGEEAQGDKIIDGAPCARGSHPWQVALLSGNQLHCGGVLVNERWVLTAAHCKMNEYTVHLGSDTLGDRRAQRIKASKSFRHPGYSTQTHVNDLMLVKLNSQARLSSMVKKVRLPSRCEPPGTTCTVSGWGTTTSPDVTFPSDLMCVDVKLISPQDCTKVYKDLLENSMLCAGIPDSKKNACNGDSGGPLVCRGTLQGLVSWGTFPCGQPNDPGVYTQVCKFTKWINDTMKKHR

[19] = optical artefact potency, substrate without enzyme – biochemical, fluorescence intensity, triplicate, artefact control for kallikrein-7 zymogen activator project, dose response (AID 720493)
[20] = target: T4, Corticotropin-releasing factor receptor 2/Corticotropin-releasing factor-binding protein (Homo sapiens, UniProt P24387+Q13324); assay: activators of CRF receptor 2 with binding protein – uHTS hits, confirmation (AID 602473); assay type: functional; details: read-out: EC50_Mean
T4 sequence (Q13324 whole entry): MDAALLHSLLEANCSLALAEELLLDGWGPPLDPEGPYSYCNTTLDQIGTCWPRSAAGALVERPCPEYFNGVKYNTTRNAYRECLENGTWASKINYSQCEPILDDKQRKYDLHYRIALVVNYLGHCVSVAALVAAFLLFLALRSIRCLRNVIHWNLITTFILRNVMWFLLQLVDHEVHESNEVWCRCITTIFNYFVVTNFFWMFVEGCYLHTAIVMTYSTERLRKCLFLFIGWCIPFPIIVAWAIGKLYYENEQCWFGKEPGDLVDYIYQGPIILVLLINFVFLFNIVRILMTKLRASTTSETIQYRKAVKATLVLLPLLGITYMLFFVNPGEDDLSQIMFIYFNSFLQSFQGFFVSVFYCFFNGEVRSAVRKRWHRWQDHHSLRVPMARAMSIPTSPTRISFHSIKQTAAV
T4 sequence (P24387 whole entry): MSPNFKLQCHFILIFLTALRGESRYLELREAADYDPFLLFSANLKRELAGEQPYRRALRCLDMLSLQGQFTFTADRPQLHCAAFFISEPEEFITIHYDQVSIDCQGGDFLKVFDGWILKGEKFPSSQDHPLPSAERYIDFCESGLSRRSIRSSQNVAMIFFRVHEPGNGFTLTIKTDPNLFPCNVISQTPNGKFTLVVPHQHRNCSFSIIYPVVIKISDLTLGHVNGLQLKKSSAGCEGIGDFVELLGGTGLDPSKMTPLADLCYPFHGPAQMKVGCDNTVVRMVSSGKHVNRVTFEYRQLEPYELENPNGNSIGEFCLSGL

[21] = viability loss in HEK293T cells – cell-based, cherry-picks, cytotoxicity control for HIV Vif inhibitor project, dose response (AID 652208); assay type: functional
[22] = target: ADP-ribosylation factor GTPase-activating protein 1 (Rattus norvegicus, UniProt Q62848); assay: Fluorescence polarization-based biochemical high throughput dose response screening assay to identify inhibitors of ADP-ribosylation factor GTPase activating protein 1 (ARFGAP1).; assay type: functional
Chain of ADP-ribosylation factor GTPase-activating protein 1 (Q62848 whole entry, the tested form may be a part): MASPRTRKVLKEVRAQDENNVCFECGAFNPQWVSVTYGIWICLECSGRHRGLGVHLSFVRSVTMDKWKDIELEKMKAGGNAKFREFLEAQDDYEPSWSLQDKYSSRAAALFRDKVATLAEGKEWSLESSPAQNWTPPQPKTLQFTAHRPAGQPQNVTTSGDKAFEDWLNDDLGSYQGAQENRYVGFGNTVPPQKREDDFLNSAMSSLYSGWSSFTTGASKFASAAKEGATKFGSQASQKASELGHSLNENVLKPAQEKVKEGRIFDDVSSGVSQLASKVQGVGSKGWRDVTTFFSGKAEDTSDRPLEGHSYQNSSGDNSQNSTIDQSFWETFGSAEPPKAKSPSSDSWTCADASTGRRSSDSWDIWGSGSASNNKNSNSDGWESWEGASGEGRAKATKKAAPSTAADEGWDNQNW

[23] = target: Arf-GAP with SH3 domain, ANK repeat and PH domain-containing protein 1 (Homo sapiens, UniProt Q9ULH1); assay type: functional;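 note: biochemical fluorescence polarization dose–response screen measuring inhibition of ASAP1; ASAP1 GAP domain stimulating GTP hydrolysis by truncated human ARF1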
Chain of Arf-GAP with SH3 domain, ANK repeat and PH domain-containing protein 1 (Q9ULH1 whole entry, the tested form may be a part): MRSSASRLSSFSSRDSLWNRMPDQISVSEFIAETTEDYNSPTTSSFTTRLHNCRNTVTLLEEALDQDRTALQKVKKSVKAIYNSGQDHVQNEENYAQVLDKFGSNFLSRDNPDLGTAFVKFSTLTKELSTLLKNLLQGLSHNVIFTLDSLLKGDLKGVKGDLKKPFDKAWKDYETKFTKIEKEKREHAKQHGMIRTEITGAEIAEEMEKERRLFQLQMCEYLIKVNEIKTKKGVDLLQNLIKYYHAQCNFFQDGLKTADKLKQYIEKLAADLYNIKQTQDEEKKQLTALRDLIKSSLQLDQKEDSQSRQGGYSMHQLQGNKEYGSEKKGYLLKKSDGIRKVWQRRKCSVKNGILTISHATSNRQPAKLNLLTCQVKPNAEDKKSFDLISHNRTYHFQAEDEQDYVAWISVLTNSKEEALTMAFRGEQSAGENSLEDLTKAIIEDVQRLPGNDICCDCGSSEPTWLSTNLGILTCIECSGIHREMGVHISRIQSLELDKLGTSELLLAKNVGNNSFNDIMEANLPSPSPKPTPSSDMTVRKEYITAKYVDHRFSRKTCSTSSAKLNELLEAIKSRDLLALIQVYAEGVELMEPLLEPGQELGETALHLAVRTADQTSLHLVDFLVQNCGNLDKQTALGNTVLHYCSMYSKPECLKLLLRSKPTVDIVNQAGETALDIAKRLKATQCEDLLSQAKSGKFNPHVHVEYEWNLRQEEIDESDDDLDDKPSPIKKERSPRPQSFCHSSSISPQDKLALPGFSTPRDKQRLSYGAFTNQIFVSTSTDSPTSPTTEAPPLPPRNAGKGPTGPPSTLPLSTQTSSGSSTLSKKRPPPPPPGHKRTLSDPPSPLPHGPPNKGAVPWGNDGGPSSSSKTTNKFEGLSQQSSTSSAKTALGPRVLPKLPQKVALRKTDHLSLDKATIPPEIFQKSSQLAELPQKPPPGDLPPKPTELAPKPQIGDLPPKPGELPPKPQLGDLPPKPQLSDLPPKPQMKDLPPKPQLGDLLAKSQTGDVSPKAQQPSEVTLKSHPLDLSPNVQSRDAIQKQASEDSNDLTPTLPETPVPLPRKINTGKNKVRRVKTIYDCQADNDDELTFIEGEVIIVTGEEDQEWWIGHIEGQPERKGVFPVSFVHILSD

[24] = T. cruzi growth inhibition in host cells, dose response, cell-based, plate reader, dry powder, set 2 (AID 652275); assay type: functional
[25] = target: Protein Wnt-3a (Mus musculus, UniProt P27467); assay: SAR analysis of small molecule antagonists of Gli-SUFU in a Wnt3a luminescent reporter assay.; assay type: functional
[26] = MITF Orthogonal Assay: SK-MEL-5 CTG Assay Measured in Cell-Based System Using Plate Reader - 2084-02_Inhibitor_Dose_DryPowder_Activity_Set7.; assay type: functional
[27] = MITF: Counter assay: A375 proliferation Measured in Cell-Based System Using Plate Reader - 2084-03_Inhibitor_Dose_DryPowder_Activity_Set8.; assay type: functional; details: A-375
[28] = inhibitors of TRPM1-promoter reporter in SK-MEL-5 – cell-based, luciferase, dry powder, set 8, MITF inhibitor project, dose response (AID 624430); assay type: functional
[29] = viability loss in A549 lung cancer cells – cell-based, CellTiter-Glo luminescence, dry powder, set 3, cytotoxicity control, dose response (AID 743146); assay type: functional
[30] = viability loss in HEK293 kidney cells – cell-based, cherry-picks, set 5, cytotoxicity control, dose response (AID 1053117); assay type: functional

CCCCCc1cc(=O)oc2c(C(CCN3CCN(c4ccccc4)CC3)c3ccc4c(c3)OCO4)c(OC)cc(OC)c12 (stereo not given)
EC50 [1]: 92.5 µM (inactive) | EC50 [2]: 76.1 µM (inactive)

CCc1ccc(NC(=O)N2CCc3ccccc3C2)cc1
IC50 [3]: > 67.6 µM (inactive) | IC50 [4]: > 67.6 µM (inactive)

Cc1nnc(SCc2cnc(-c3ccccc3)o2)nc1O
AC50 [5]: 0.547 µM (active) | Ki [6]: > 66.7 µM (inactive)

CCOc1ccc(-n2c(=S)sc3c(O)nc(SCC(=O)N4CCC(C)CC4)nc32)cc1
IC50 [7]: 30 µM (active) | AC50 [8]: 99 µM (active)

CCN1CCN(Cc2c(O)ccc3c(C)cc(=O)oc23)CC1
AC50 [9]: 10 µM (active)

O=C(c1cc2c(=O)n3ccccc3nc2s1)N1CCN(Cc2ccc3c(c2)OCO3)CC1
EC50 [10]: 0.0693 µM (active) | EC50 [11]: 0.00977 µM (active) | IC50 [12]: > 1.11 µM (active)

CCOC(=O)C(C)Sc1nc(-c2ccccc2)nc2ccccc12 (stereo not given)
IC50 [13]: 1.83 µM (active) | IC50 [14]: > 138 µM (inactive)

CCC(=O)NCCn1c(C)cc2ccccc21
EC50 [15]: > 20 µM (inactive) | IC50 [16]: > 100 µM (inactive)

CC(=O)Nc1cccc(OCCCNC(=O)c2ccc(C(C)(C)C)cc2)c1
AC50 [17]: 35.3 µM (active)

COc1cc2c(cc1OC)C(=O)CC(C)S2 (stereo not given)
EC50 [18]: 8.28 µM (active) | EC50 [19]: > 7.73 µM (active)

O=C(NCc1ccccc1C(F)(F)F)c1cccc2c1C(=O)c1ccc(N3CCCCC3)cc1S2(=O)=O
EC50 [20]: 5.37 µM (active) | AC50 [21]: > 52 µM (inactive)

COc1ccccc1C=NNC(=O)NN=Cc1ccccc1OC
IC50 [22]: 25.6 µM (inactive) | IC50 [23]: 23.2 µM (inactive)

CC(C)(C)[S@@+]([O-])N1Cc2cc(C(=O)NCc3ccc4c(c3)OCO4)nc(-c3cccc(-c4cccnc4)c3)c2[C@H]1CCO
AC50 [24]: 1.67 µM (active)

O=C(Nc1cc(N2CCCCC2)ncn1)c1ccccc1C(F)(F)F
IC50 [25]: 6.48 µM (active)

CC(C)N1CCN(C2=C(Nc3cccc(Cl)c3)C(=O)c3ccccc3C2=O)CC1
AC50 [26]: 7.16 µM (active) | AC50 [27]: 30.1 µM (active) | AC50 [28]: 2.47 µM (active)

O=C(CCNC(=O)c1ccc(Cl)cc1)N[C@H]1CCCc2ccccc21
AC50 [29]: > 52 µM (inactive)

O=S(=O)(c1cccc(F)c1)N1CC[C@@H]2[C@H]1c1cc(-c3cccc(F)c3)ccc1N[C@@H]2CO
AC50 [30]: 33.9 µM (active)
